In PMC8371902, “Phase 1 study of M2698, a p70S6K/AKT dual inhibitor, in patients with advanced cancer” (Journal of Hematology & Oncology, 2021):
Like-named read-outs stand apart in the source and are kept apart here.

System: patients with advanced metastatic cancer
Description: In this phase 1 study, dose escalation was followed by expansion cohorts of once-daily, oral M2698 in continuous 21-day cycles. Primary objectives were to determine the maximum tolerated dose (MTD), dose-limiting toxicities (DLTs), and recommended phase 2 dose (RP2D). Secondary objectives were to assess safety and tolerability, pharmacokinetics (PK, including food effect) and antitumor activity. Pharmacodynamic biomarker assessments were exploratory. Treatment was discontinued if there was disease progression, toxicity or consent withdrawal.
In Part 1, M2698 monotherapy was investigated in a dose escalation with a food effect cohort. In Part 2, M2698 was investigated as monotherapy (expansion cohort) to further characterize safety, tolerability and pharmacokinetics, and assess antitumor activity in PAM + patients without confounding markers (exploratory).
Dose escalation analysis included all patients who experienced a DLT and those who received ≥ 80% of planned M2698 doses in cycle 1 without experiencing a DLT. Safety analysis included all patients who received ≥ 1 dose of M2698. PK analysis included all patients who received ≥ 1 dose of M2698 and had measurable plasma concentrations. Dose proportionality was tested using the power model (linear regression approach on the log -transformed scale).

NC(=O)c1cccc2c(N[C@H](CN3CCC3)c3ccc(Cl)c(C(F)(F)F)c3)ncnc12 [M2698]
2: M2698-related TEAE: Gastrointestinal disorders (380 mg n=4)
7 (11.3) n (%): M2698-related TEAE: Diarrhoea (Overall N=62)
12 (19.4) n (%): M2698-related TEAE: Nausea (Overall N=62)
6 (9.7) n (%): M2698-related TEAE: Abnormal dreams (Overall N=62) | M2698-related TEAE: General disorders and administration site conditions (Overall N=62)
18 (29.0) n (%): M2698-related TEAE: Gastrointestinal disorders (Overall N=62)
8 (12.9) n (%): M2698-related TEAE: Skin and subcutaneous tissue disorders (Overall N=62)
3: M2698-related TEAE: Subjects with at least one event (380 mg n=4)
9 (14.5) n (%): M2698-related TEAE: Investigations (Overall N=62)
0: M2698-related TEAE: Dysphagia (380 mg n=4) | M2698-related TEAE: Energy increased (380 mg n=4) | M2698-related TEAE: Erythema (380 mg n=4) | M2698-related TEAE: Euphoric mood (380 mg n=4) | M2698-related TEAE: Eye disorders (380 mg n=4) | M2698-related TEAE: Fatigue (380 mg n=4) | M2698-related TEAE: Gamma-glutamyltransferase increased (380 mg n=4) | M2698-related TEAE: Gastrooesophageal reflux disease (380 mg n=4) | M2698-related TEAE: General disorders and administration site conditions (380 mg n=4) | M2698-related TEAE: Headache (380 mg n=4) | M2698-related TEAE: Hyperhidrosis (380 mg n=4) | M2698-related TEAE: Hypokalaemia (380 mg n=4) | M2698-related TEAE: Hypomagnesaemia (380 mg n=4) | M2698-related TEAE: Insomnia (380 mg n=4) | M2698-related TEAE: Lipase increased (380 mg n=4) | M2698-related TEAE: Lymphopenia (380 mg n=4) | M2698-related TEAE: Metabolism and nutrition disorders (380 mg n=4) | M2698-related TEAE: Mucosal inflammation (380 mg n=4) | M2698-related TEAE: Nightmare (380 mg n=4) | M2698-related TEAE: Onychomadesis (380 mg n=4) | M2698-related TEAE: Paranoia (380 mg n=4) | M2698-related TEAE: Photosensitivity reaction (380 mg n=4) | M2698-related TEAE: Pruritus generalised (380 mg n=4) | M2698-related TEAE: Psychiatric disorders (380 mg n=4) | M2698-related TEAE: Rash (380 mg n=4) | M2698-related TEAE: Rash maculo-papular (380 mg n=4) | M2698-related TEAE: Skin and subcutaneous tissue disorders (380 mg n=4) | M2698-related TEAE: Transaminases increased (380 mg n=4) | M2698-related TEAE: Tremor (380 mg n=4) | M2698-related TEAE: Vision blurred (380 mg n=4) | M2698-related TEAE: White blood cell count decreased (380 mg n=4)
4 (6.5) n (%): M2698-related TEAE: Fatigue (Overall N=62) | M2698-related TEAE: Metabolism and nutrition disorders (Overall N=62) | M2698-related TEAE: Tremor (Overall N=62)
1 (1.6) n (%): M2698-related TEAE: Affect lability (Overall N=62) | M2698-related TEAE: Alanine aminotransferase increased (Overall N=62) | M2698-related TEAE: Amylase increased (Overall N=62) | M2698-related TEAE: Angina pectoris (Overall N=62) | M2698-related TEAE: Anxiety (Overall N=62) | M2698-related TEAE: Aphasia (Overall N=62) | M2698-related TEAE: Ataxia (Overall N=62) | M2698-related TEAE: Cardiac disorders (Overall N=62) | M2698-related TEAE: Cognitive disorder (Overall N=62) | M2698-related TEAE: Delusion (Overall N=62) | M2698-related TEAE: Diarrhoea haemorrhagic (Overall N=62) | M2698-related TEAE: Dizziness (Overall N=62) | M2698-related TEAE: Dry eye (Overall N=62) | M2698-related TEAE: Dry mouth (Overall N=62) | M2698-related TEAE: Dyspepsia (Overall N=62) | M2698-related TEAE: Dysphagia (Overall N=62) | M2698-related TEAE: Energy increased (Overall N=62) | M2698-related TEAE: Erythema (Overall N=62) | M2698-related TEAE: Euphoric mood (Overall N=62) | M2698-related TEAE: Gastrooesophageal reflux disease (Overall N=62) | M2698-related TEAE: Headache (Overall N=62) | M2698-related TEAE: Hyperhidrosis (Overall N=62) | M2698-related TEAE: Hypomagnesaemia (Overall N=62) | M2698-related TEAE: Lipase increased (Overall N=62) | M2698-related TEAE: Lymphopenia (Overall N=62) | M2698-related TEAE: Mucosal inflammation (Overall N=62) | M2698-related TEAE: Nightmare (Overall N=62) | M2698-related TEAE: Onychomadesis (Overall N=62) | M2698-related TEAE: Paranoia (Overall N=62) | M2698-related TEAE: Photosensitivity reaction (Overall N=62) | M2698-related TEAE: Posterior reversible encephalopathy syndrome (Overall N=62) | M2698-related TEAE: Pruritus generalised (Overall N=62) | M2698-related TEAE: Rash (Overall N=62) | M2698-related TEAE: Transaminases increased (Overall N=62) | M2698-related TEAE: Vision blurred (Overall N=62)
3 (4.8) n (%): M2698-related TEAE: Blood and lymphatic system disorders (Overall N=62) | M2698-related TEAE: Constipation (Overall N=62)
2 (3.2) n (%): M2698-related TEAE: Anaemia (Overall N=62) | M2698-related TEAE: Blood creatine phosphokinase increased (Overall N=62) | M2698-related TEAE: Blood creatinine increased (Overall N=62) | M2698-related TEAE: Decreased appetite (Overall N=62) | M2698-related TEAE: Depression (Overall N=62) | M2698-related TEAE: Dysgeusia (Overall N=62) | M2698-related TEAE: Eye disorders (Overall N=62) | M2698-related TEAE: Gamma-glutamyltransferase increased (Overall N=62) | M2698-related TEAE: Hypokalaemia (Overall N=62) | M2698-related TEAE: Insomnia (Overall N=62) | M2698-related TEAE: Rash maculo-papular (Overall N=62)
1: M2698-related TEAE: Investigations (380 mg n=4) | M2698-related TEAE: Nausea (380 mg n=4) | M2698-related TEAE: Nervous system disorders (380 mg n=4) | M2698-related TEAE: Posterior reversible encephalopathy syndrome (380 mg n=4) | M2698-related TEAE: Vomiting (380 mg n=4)
34 (54.8) n (%): M2698-related TEAE: Subjects with at least one event (Overall N=62)
10 (16.1) n (%): M2698-related TEAE: Nervous system disorders (Overall N=62) | M2698-related TEAE: Psychiatric disorders (Overall N=62)
